In patent US8338435B2, “Substituted pyrido(3,2-D) pyrimidines and pharmaceutical compositions for treating viral infections” (Gilead Sciences, Inc., priority 2006, dated 2012):
Read-outs that look alike come from different tables or passages of the source.

Experiments:
[1] = system: HCV replicon; experiment: Anti-HCV replicon assay, EC50 (luciferase luminescence); format: cell-based; conditions: Hepatitis C virus
Method: (§1) The anti-HCV activity of certain pyrido[3,2-d]pyrimidine derivatives of this invention was tested in a human hepatoma Huh-7 cell line harbouring a HCV replicon. The assay comprised the following steps:
(§2) Step 1: Compound Preparation and Serial Dilution
(§3) • 1. for water soluble pyrido[3,2-d]pyrimidine derivatives, a volume of 500 μL of solution in cell media (DMEM, 10% FBS, P/S, L-Glutamine) was prepared with a concentration being twice the concentration of the starting final serial dilution concentration. A volume of 150 μL of the solution was added to the pre-specified wells in column 1 of a 96-well cell culture plate (PerkinElmer, white plate, cat. #6005181, for EC50 assay; black plate, cat. #6005182 for CC50 assay). The rest of the plate, columns 2-12, was filled with 100 μL of cell media. The plate was then placed on a Precision 2000 Workstation to start the serial dilution. Compounds were diluted three times each step from column 1 to column 10. Column 11 was used as a blank control (no compound added). • 2. for pyrido[3,2-d]pyrimidine derivatives requiring DMSO to dissolve, serial dilution is performed in 50% DMSO in a 384-well plate. A solution containing a compound at 100-fold concentration of the starting final serial dilution concentration was prepared in 50% DMSO and added to the pre-specified wells in column 1 of a polypropylene 384-well plate. The plate was then placed on a Precision 2000 Workstation to start the serial dilution. After the serial dilution, a volume of 2 μL of the solution was transferred from the 384-well plate to a 96-well cell culture plate containing 100 μL of cell media on a Biomek FX Workstation. The DMSO concentration in the final assay condition was 0.5% after cells are added to the plate and the total volume in each well is brought to 200 μL. Step 2: to each well of the serial dilution plate prepared above, 100 μL of cell media containing 6000 suspended Huh-7 HCV replicon cells was added with a Multidrop workstation. The plates were incubated for 3 days at 37° C. with 5% CO2. Step 3: Detection: • a) for the EC50 assay, the media in a 96-well cell culture plate was aspirated with a Biotek EL405 plate-washer. A volume of 200 μL of a solution containing a 1:1 mixture of cell-lysis buffer (Promega, Luciferase Cell Culture Lysis 5× Reagent, cat. #E1531) and luciferase substrate solution (Promega, Luciferase Assay, cat. # E4550) was added to each well of the plate with Multidrop. The plate was incubated for 30 minutes at room temperature before the luminescence signal was measured with a TopCount plate-reader. • b) for the CC50 assay, a volume of 100 μL of pre-mixed CellTiter-Glo (Promega, cat. # G7572) solution is added directly to the cell culture in each well of the plate and the luminescence signal is measured with a TopCount plate-reader after 10 minutes of incubation at room temperature.
(§4) Results in the table below are expressed by the following data: • the 50% cytostatic concentration (CC50). i.e. the concentration that results in 50% inhibition of cell growth, and • the 50% effective concentration (EC50), i.e. the concentration that protects 50% of the cell monolayer from virus-induced cythopathic effect.

[2] = CC50 assay (CellTiter-Glo) in the replicon cells; format: cell-based; conditions: human, Huh-7 HCV replicon cells, 3 days incubation, 50% inhibition of cell growth
Method: as §1, §2, §3, §4

[3] = 72 h, human hepatoma Huh-7 cell line harbouring a HCV replicon, 3 days incubation, luciferase readout, read-out: EC50

| SMILES | EC50 [1, 3] [nM] | CC50 at 3 days [2] [nM] | EC50 ([1]; Huh-7, 72 h) [nM] |
| --- | --- | --- | --- |
| Nc1nc(C2CC2)c2nc(-c3ccc(F)cc3)ccc2n1 [Example 13, 4-Cyclopropyl-6-(4-fluoro-phenyl)-pyrido[3,2-d]pyrimidin-2-ylamine] | < 300 | 10000 to 20000 |  |
| CC(C)c1nc(N)nc2ccc(-c3ccc(F)cc3)nc12 [Example 12, 6-(4-fluorophenyl)-4-isopropyl-pyrido[3,2-d]pyrimidin-2-ylamine] | < 300 | > 20000 |  |
| CCCc1nc(N)nc2ccc(-c3ccc(NC(C)=O)cc3)nc12 [Example 3, N-[4-(2-amino-4-n-propyl-pyrido[3,2-d]pyrimidin-6-yl)-phenyl]-acetamide] | 300 to 1000 | > 20000 |  |
| Nc1nc(CCC2OCCCO2)c2nc(-c3ccc(F)cc3)ccc2n1 [Example 10, 4-(2-[1,3]dioxan-2-yl-ethyl)-6-(4-fluoro-phenyl)-pyrido[3,2-d]pyrimidin-2-ylamine] |  | > 20000 | 300 to 1000 |
| CCc1nc(N)nc2ccc(-c3cnc(N)cn3)nc12 [Example 9, 6-(5-Amino-pyrazin-2-yl)-4-ethyl-pyrido[3,2-d]pyrimidin-2-ylamine] | 300 to 1000 | < 10000 |  |
| Nc1nc(C2CC2)c2nc(-c3ccc(N4CCCC4=O)cc3)ccc2n1 [Example 14, 1-[4-(2-amino-4-cyclopropyl-pyrido[3,2-d]pyrimidin-6-yl)-phenyl]-pyrrolidin-2-one] | < 300 | 10000 to 20000 |  |
| CCc1nc(N)nc2ccc(-c3ccc(N4CCCC4=O)cc3)nc12 [Example 8, 1-[4-(2-amino-4-ethyl-pyrido[3,2-d]pyrimidin-6-yl)-phenyl]-pyrrolidin-2-one] | < 300 | > 20000 |  |
| CC(C)Cc1nc(N)nc2ccc(-c3ccc(F)cc3)nc12 [Example 6, 6-(4-fluorophenyl)-4-isobutyl-pyrido[3,2-d]pyrimidin-2-ylamine] | < 300 | > 20000 |  |
| Cc1nc(N)nc2ccc(-c3ccc(F)cc3)nc12 [Example 11, 4-methyl-6-(4-fluorophenyl)-pyrido[3,2-d]pyrimidin-2-ylamine] | < 300 | < 10000 |  |
| CCc1nc(N)nc2ccc(-c3ccc(F)cc3)nc12 [Example 5, 4-ethyl-6-(4-fluoro-phenyl)-pyrido[3,2-d]pyrimidin-2-ylamine] | < 300 | < 10000 |  |
| CCCc1nc(N)nc2ccc(-c3ccc(F)cc3)nc12 [Example 2, 6-(4-fluorophenyl)-4-n-propyl-pyrido[3,2-d]pyrimidin-2-yl-amine] | < 300 | > 20000 |  |
| C=CCCc1nc(N)nc2ccc(-c3ccc(F)cc3)nc12 [Example 7, 4-but-3-enyl-6-(4-fluorophenyl)-pyrido[3,2-d]pyrimidin-2-ylamine] |  | > 20000 | < 300 |
